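Five concentrations, 48 hours, 96-well plates. GI50: concentration for 50% inhibition of growth.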 Calls of active or inactive are those of the source. Cut-off read from the data, not from the text of the source: active = GI50 up to about 1.1 µM and inactive = higher.
Key:
Experiment in all cases: NCI-60 cell line screen, 48 h
RPMI-8226 = system: RPMI-8226
EKVX = system: EKVX
ACHN = system: ACHN
786-0 = system: 786-0
MDA-N = system: MDA-N
PC-3 = system: PC-3
SNB-19 = system: SNB-19
HOP-62 = system: HOP-62
OVCAR-4 = system: OVCAR-4
NCI-H226 = system: NCI-H226
HOP-92 = system: HOP-92
SR = system: SR
SNB-75 = system: SNB-75
Malme-3M = system: Malme-3M
SF-268 = system: SF-268
M14 = system: M14
OVCAR-5 = system: OVCAR-5
BT-549 = system: BT-549
MDA-MB-435 = system: MDA-MB-435
HCC 2998 = system: HCC 2998

| Structure (SMILES) | GI50 (RPMI-8226) | GI50 (EKVX) | GI50 (ACHN) | GI50 (786-0) | GI50 (MDA-N) | GI50 (PC-3) | GI50 (SNB-19) | GI50 (HOP-62) | GI50 (OVCAR-4) | GI50 (NCI-H226) | GI50 (HOP-92) | GI50 (SR) | GI50 (SNB-75) | GI50 (Malme-3M) | GI50 (SF-268) | GI50 (M14) | GI50 (OVCAR-5) | GI50 (BT-549) | GI50 (MDA-MB-435) | GI50 (HCC 2998) |
| --- | --- | --- | --- | --- | --- | --- | --- | --- | --- | --- | --- | --- | --- | --- | --- | --- | --- | --- | --- | --- |
| COc1ccc(C2SC(=N)Nc3c2c(C)nn3C(=O)c2ccncc2)cc1 (stereo not given) | 57.3 µM (inactive) | > 100 µM (inactive) | > 100 µM (inactive) | > 100 µM (inactive) | > 100 µM (inactive) | > 100 µM (inactive) | > 100 µM (inactive) | > 100 µM (inactive) | 43.3 µM (inactive) | > 100 µM (inactive) | > 100 µM (inactive) | 21.2 µM (inactive) | > 100 µM (inactive) | > 100 µM (inactive) | > 100 µM (inactive) | > 100 µM (inactive) | > 100 µM (inactive) | > 100 µM (inactive) | 70.6 µM (inactive) | – |
| c1ccc(Cc2nc(Cc3n[nH]c(Cc4ccccc4)n3)n[nH]2)cc1 | > 100 µM (inactive) | > 100 µM (inactive) | > 100 µM (inactive) | > 100 µM (inactive) | > 100 µM (inactive) | > 100 µM (inactive) | > 100 µM (inactive) | > 100 µM (inactive) | > 100 µM (inactive) | – | > 100 µM (inactive) | > 100 µM (inactive) | > 100 µM (inactive) | – | > 100 µM (inactive) | > 100 µM (inactive) | > 100 µM (inactive) | > 100 µM (inactive) | > 100 µM (inactive) | > 100 µM (inactive) |
| COC(=O)[C@H](Cc1c[nH]c2ccccc12)NC(=O)c1ccccc1I | – | > 100 µM (inactive) | 17.1 µM (inactive) | 16.1 µM (inactive) | 8.41 µM (inactive) | 24.6 µM (inactive) | > 100 µM (inactive) | 30.5 µM (inactive) | 30 µM (inactive) | 26.8 µM (inactive) | 16.9 µM (inactive) | 24.2 µM (inactive) | 11.8 µM (inactive) | 18.7 µM (inactive) | 19.8 µM (inactive) | 15.7 µM (inactive) | > 100 µM (inactive) | > 100 µM (inactive) | 25.4 µM (inactive) | 26.4 µM (inactive) |
| Cc1ccc(S(=O)(=O)OC2C(C3COC(C)(C)O3)OC3OC(C)(C)OC32)cc1 (stereo not given) | – | > 100 µM (inactive) | > 100 µM (inactive) | > 100 µM (inactive) | > 100 µM (inactive) | > 100 µM (inactive) | > 100 µM (inactive) | > 100 µM (inactive) | > 100 µM (inactive) | > 100 µM (inactive) | > 100 µM (inactive) | > 100 µM (inactive) | > 100 µM (inactive) | > 100 µM (inactive) | > 100 µM (inactive) | > 100 µM (inactive) | > 100 µM (inactive) | > 100 µM (inactive) | > 100 µM (inactive) | > 100 µM (inactive) |
| O=C(/N=C1/NCC(CN2CCN(c3ccccc3)CC2)O1)Nc1ccccc1 (stereo not given) | > 100 µM (inactive) | > 100 µM (inactive) | > 100 µM (inactive) | > 100 µM (inactive) | > 100 µM (inactive) | > 100 µM (inactive) | > 100 µM (inactive) | > 100 µM (inactive) | > 100 µM (inactive) | > 100 µM (inactive) | > 100 µM (inactive) | > 100 µM (inactive) | – | > 100 µM (inactive) | > 100 µM (inactive) | > 100 µM (inactive) | > 100 µM (inactive) | > 100 µM (inactive) | > 100 µM (inactive) | > 100 µM (inactive) |
| Cc1cccc(/C(Br)=C2/OC(=O)c3ccccc32)c1 | > 100 µM (inactive) | > 100 µM (inactive) | > 100 µM (inactive) | > 100 µM (inactive) | > 100 µM (inactive) | > 100 µM (inactive) | – | > 100 µM (inactive) | > 100 µM (inactive) | – | > 100 µM (inactive) | > 100 µM (inactive) | > 100 µM (inactive) | > 100 µM (inactive) | > 100 µM (inactive) | > 100 µM (inactive) | > 100 µM (inactive) | > 100 µM (inactive) | > 100 µM (inactive) | > 100 µM (inactive) |
| Oc1ccc(O)c(CNc2ccc(C(O)C(F)(F)F)cc2)c1 (stereo not given) | – | 14.5 µM (inactive) | 13.7 µM (inactive) | 13 µM (inactive) | 9.86 µM (inactive) | 16.3 µM (inactive) | 44.9 µM (inactive) | 15.6 µM (inactive) | 16.3 µM (inactive) | 18.4 µM (inactive) | 13.6 µM (inactive) | 6.3 µM (inactive) | 12.2 µM (inactive) | 15.6 µM (inactive) | 22.2 µM (inactive) | 14.8 µM (inactive) | 20.5 µM (inactive) | 12.1 µM (inactive) | 11.9 µM (inactive) | – |
| C=C1C2C[C@@H]3O[C@H]4C[C@H]5O[C@@]6(C[C@@H]7O[C@]8(C[C@H](C)[C@@H]9O[C@@H]%10CC(C=O)O[C@@H]%10C[C@@H]9O8)C[C@H](C)[C@@H]7O6)C[C@H]5O[C@H]4[C@H](C)[C@H]3OC(=O)C[C@H]3CC[C@@H]4OC5[C@H]6O[C@]7(CC[C@H]8CC(=C)[C@H](CC[C@@H](C[C@H]1C)O2)O8)CC6O[C@@H]5[C@@H](O7)[C@H]4O3 (stereo not given in full) | < 0.0001 µM (active) | < 0.0001 µM (active) | < 0.0001 µM (active) | < 0.0001 µM (active) | < 0.0001 µM (active) | < 0.0001 µM (active) | 0.000104 µM (active) | < 0.0001 µM (active) | – | < 0.0001 µM (active) | 0.000724 µM (active) | < 0.0001 µM (active) | < 0.0001 µM (active) | – | < 0.0001 µM (active) | < 0.0001 µM (active) | – | < 0.0001 µM (active) | < 0.0001 µM (active) | < 0.0001 µM (active) |
| CC(=O)Oc1ccc2ccc(=O)oc2c1OC(C)=O | 28.4 µM (inactive) | 67.8 µM (inactive) | 45.4 µM (inactive) | 42.1 µM (inactive) | 49.8 µM (inactive) | 43 µM (inactive) | 32.6 µM (inactive) | 29.5 µM (inactive) | 35 µM (inactive) | – | 64.3 µM (inactive) | 28 µM (inactive) | 66.5 µM (inactive) | > 100 µM (inactive) | 27.8 µM (inactive) | 78 µM (inactive) | > 100 µM (inactive) | 40 µM (inactive) | 39.1 µM (inactive) | 48 µM (inactive) |
| COc1ccccc1/N=N/c1c(O)c(S(=O)(=O)O)cc2cc(S(=O)(=O)O)ccc12 | > 100 µM (inactive) | > 100 µM (inactive) | > 100 µM (inactive) | > 100 µM (inactive) | > 100 µM (inactive) | > 100 µM (inactive) | > 100 µM (inactive) | > 100 µM (inactive) | > 100 µM (inactive) | > 100 µM (inactive) | > 100 µM (inactive) | > 100 µM (inactive) | > 100 µM (inactive) | > 100 µM (inactive) | > 100 µM (inactive) | > 100 µM (inactive) | > 100 µM (inactive) | > 100 µM (inactive) | > 100 µM (inactive) | – |
